According to US20230085307A1, “PYRIDAZINONE COMPOUND AND HERBICIDE” (NISSAN CHEMICAL CORPORATION, priority 2019, published 2023):

What was measured:
[1] = test system: late watergrass; assay: Test Example 1: herbicidal activity, application before weed generation under submerged conditions (Table 16, symbol A); format: in vivo, late watergrass (Echinochloa oryzicola); conditions: amount of applied herbicide 320 g/ha
Summary of the method: (§1)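 Emulsion formulation, water-diluted to set dose, was put onto the flooded surface (4 cm depth, alluvial soil) the same day weeds were sown and 2.5-leaf rice transplanted. After 3 weeks at 25-30 °C under glass, each species was rated 0 (≤5% kill) to 5 (≥90% kill).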

[2] = test system: Japanese bulrush; assay: Test Example 1: herbicidal activity, application before weed generation under submerged conditions (Table 16, symbol B); format: in vivo, Japanese bulrush (Schoenoplectus juncoides); conditions: amount of applied herbicide 320 g/ha
Summary of the method: as §1

[3] = test system: oval-leafed pondweed; assay: Test Example 1: herbicidal activity, application before weed generation under submerged conditions (Table 16, symbol C); format: in vivo, oval-leafed pondweed (Monochoria vaginalis); conditions: amount of applied herbicide 320 g/ha
Summary of the method: as §1

[4] = test system: barnyard grass; assay: Test Example 3: herbicidal effect by foliage application, Wagner pot (Table 18, symbol H); format: in vivo, barnyard grass (Echinochloa crus-galli); conditions: 320 g/ha
Summary of the method: (§2)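 Plants were sown in alluvial soil held under 0.1–0.5 cm standing water and grown 14 days in a greenhouse at 25–30 °C. An emulsifiable formulation, water-diluted to the set dose, was then sprayed onto the foliage, and effects were scored three weeks later using previously defined criteria.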

[5] = test system: Chinese sprangletop; assay: Test Example 3: herbicidal effect by foliage application, Wagner pot (Table 18, symbol D); format: in vivo, chinese sprangletop (Leptochloa chinensis); conditions: 320 g/ha
Summary of the method: as §2

[6] = test system: rice flat sedge; assay: Test Example 3: herbicidal effect by foliage application, Wagner pot (Table 18, symbol E); format: in vivo, rice flat sedge (Cyperus iria); conditions: 320 g/ha
Summary of the method: as §2

[7] = test system: southern crabgrass; assay: Test Example 4: herbicidal effect by soil treatment (Table 19, symbol F); format: in vivo, southern crabgrass (Digitaria ciliaris); conditions: amount of applied herbicide 320 g/ha
Summary of the method: (§3)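 Soil-surface application: an emulsion agent diluted with water to the predetermined dose is sprayed uniformly over seeds lying under roughly 1.5 cm of sterilized diluvial soil. Boxes stay in a greenhouse at 25° C. to 30° C. Three weeks later, each species is graded on previously defined criteria.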

[8] = test system: green foxtail; assay: Test Example 4: herbicidal effect by soil treatment (Table 19, symbol G); format: in vivo, green foxtail (Setaria viridis); conditions: amount of applied herbicide 320 g/ha
Summary of the method: as §3

[9] = test system: barnyard grass; assay: Test Example 4: herbicidal effect by soil treatment (Table 19, symbol H); format: in vivo, barnyard grass (Echinochloa crus-galli); conditions: amount of applied herbicide 320 g/ha
Summary of the method: as §3

[10] = test system: wild oat; assay: Test Example 4: herbicidal effect by soil treatment (Table 19, symbol I); format: in vivo, wild oat (Avena fatua); conditions: amount of applied herbicide 320 g/ha
Summary of the method: as §3

[11] = test system: blackgrass; assay: Test Example 4: herbicidal effect by soil treatment (Table 19, symbol J); format: in vivo, blackgrass (Alopecurus myosuroides); conditions: amount of applied herbicide 320 g/ha
Summary of the method: as §3

[12] = test system: Italian ryegrass; assay: Test Example 4: herbicidal effect by soil treatment (Table 19, symbol K); format: in vivo, Italian ryegrass (Lolium multiflorum); conditions: amount of applied herbicide 320 g/ha
Summary of the method: as §3

[13] = test system: windgrass; assay: Test Example 4: herbicidal effect by soil treatment (Table 19, symbol L); format: in vivo, windgrass (Apera spica-venti); conditions: amount of applied herbicide 320 g/ha
Summary of the method: as §3

[14] = test system: velvetleaf; assay: Test Example 4: herbicidal effect by soil treatment (Table 19, symbol M); format: in vivo, velvetleaf (Abutilon theophrasti); conditions: amount of applied herbicide 320 g/ha
Summary of the method: as §3

[15] = test system: redroot pigweed; assay: Test Example 4: herbicidal effect by soil treatment (Table 19, symbol N); format: in vivo, redroot pigweed (Amaranthus retroflexus); conditions: amount of applied herbicide 320 g/ha
Summary of the method: as §3

[16] = test system: lambsquarters; assay: Test Example 4: herbicidal effect by soil treatment (Table 19, symbol O); format: in vivo, lambsquarters (Chenopodium album); conditions: amount of applied herbicide 320 g/ha
Summary of the method: as §3

[17] = test system: chickweed; assay: Test Example 4: herbicidal effect by soil treatment (Table 19, symbol P); format: in vivo, common chickweed (Stellaria media); conditions: amount of applied herbicide 320 g/ha
Summary of the method: as §3

[18] = test system: false cleavers; assay: Test Example 4: herbicidal effect by soil treatment (Table 19, symbol Q); format: in vivo, false cleavers (Galium spurium); conditions: amount of applied herbicide 320 g/ha
Summary of the method: as §3

[19] = test system: persian speedwell; assay: Test Example 4: herbicidal effect by soil treatment (Table 19, symbol R); format: in vivo, Persian speedwell (Veronica persica); conditions: amount of applied herbicide 320 g/ha
Summary of the method: as §3

[20] = test system: southern crabgrass; assay: Test Example 5: herbicidal effect by foliage application, plastic box (Table 20, symbol F); format: in vivo, southern crabgrass (Digitaria ciliaris); conditions: foliage application, 320 g/ha, three weeks after application
Summary of the method: (§4)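 Sow seeds spot-wise in sterilized diluvial soil; cover with ~1.5 cm soil. Grow 14 days in greenhouse, 25° C. to 30° C. Spray foliage with emulsion diluted to predetermined amount. Rate effect after 3 weeks.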

[21] = test system: green foxtail; assay: Test Example 5: herbicidal effect by foliage application, plastic box (Table 20, symbol G); format: in vivo, green foxtail (Setaria viridis); conditions: foliage application, 320 g/ha, three weeks after application
Summary of the method: as §4

[22] = test system: barnyard grass; assay: Test Example 5: herbicidal effect by foliage application, plastic box (Table 20, symbol H); format: in vivo, barnyard grass (Echinochloa crus-galli); conditions: foliage application, 320 g/ha, three weeks after application
Summary of the method: as §4

[23] = test system: wild oat; assay: Test Example 5: herbicidal effect by foliage application, plastic box (Table 20, symbol I); format: in vivo, wild oat (Avena fatua); conditions: foliage application, 320 g/ha, three weeks after application
Summary of the method: as §4

[24] = test system: blackgrass; assay: Test Example 5: herbicidal effect by foliage application, plastic box (Table 20, symbol J); format: in vivo, blackgrass (Alopecurus myosuroides); conditions: foliage application, 320 g/ha, three weeks after application
Summary of the method: as §4

[25] = test system: Italian ryegrass; assay: Test Example 5: herbicidal effect by foliage application, plastic box (Table 20, symbol K); format: in vivo, Italian ryegrass (Lolium multiflorum); conditions: foliage application, 320 g/ha, three weeks after application
Summary of the method: as §4

[26] = test system: windgrass; assay: Test Example 5: herbicidal effect by foliage application, plastic box (Table 20, symbol L); format: in vivo, windgrass (Apera spica-venti); conditions: foliage application, 320 g/ha, three weeks after application
Summary of the method: as §4

[27] = test system: velvetleaf; assay: Test Example 5: herbicidal effect by foliage application, plastic box (Table 20, symbol M); format: in vivo, velvetleaf (Abutilon theophrasti); conditions: foliage application, 320 g/ha, three weeks after application
Summary of the method: as §4

[28] = test system: redroot pigweed; assay: Test Example 5: herbicidal effect by foliage application, plastic box (Table 20, symbol N); format: in vivo, redroot pigweed (Amaranthus retroflexus); conditions: foliage application, 320 g/ha, three weeks after application
Summary of the method: as §4

[29] = test system: lambsquarters; assay: Test Example 5: herbicidal effect by foliage application, plastic box (Table 20, symbol O); format: in vivo, lambsquarters (Chenopodium album); conditions: foliage application, 320 g/ha, three weeks after application
Summary of the method: as §4

[30] = test system: chickweed; assay: Test Example 5: herbicidal effect by foliage application, plastic box (Table 20, symbol P); format: in vivo, common chickweed (Stellaria media); conditions: foliage application, 320 g/ha, three weeks after application
Summary of the method: as §4

[31] = test system: false cleavers; assay: Test Example 5: herbicidal effect by foliage application, plastic box (Table 20, symbol Q); format: in vivo, false cleavers (Galium spurium); conditions: foliage application, 320 g/ha, three weeks after application
Summary of the method: as §4

[32] = test system: persian speedwell; assay: Test Example 5: herbicidal effect by foliage application, plastic box (Table 20, symbol R); format: in vivo, Persian speedwell (Veronica persica); conditions: foliage application, 320 g/ha, three weeks after application
Summary of the method: as §4

For `Cc1ccc2c(-c3c(O)c(C)nn(C)c3=O)c(-c3ccc4c(c3)OCCO4)sc2c1` [3-059], the “Herbicidal effect, A: late watergrass” value [1] was 2 (Herbicidal rate of 20% or more and less than 40%), the “Herbicidal effect, B: Japanese bulrush” value [2] was 1 (Herbicidal rate of 5% or more and less than 20%) and the “Herbicidal effect, C: oval-leafed pondweed” value [3] was 2 (Herbicidal rate of 20% or more and less than 40%). For the same compound, the “herbicidal effect on barnyard grass (H)” value [4] was 4 (Herbicidal rate of 70% or more and less than 90%), the “herbicidal effect on Chinese sprangletop (D)” value [5] was 0 (Herbicidal rate of 5% or less (almost no effect)) and the “herbicidal effect on rice flat sedge (E)” value [6] was 4 (Herbicidal rate of 70% or more and less than 90%). The “F: southern crabgrass, herbicidal effect grade” value [7] was 0 (Herbicidal rate of 5% or less (almost no effect)), the “G: green foxtail, herbicidal effect grade” value [8] was 0 (Herbicidal rate of 5% or less (almost no effect)) and the “H: barnyard grass, herbicidal effect grade” value [9] was 0 (Herbicidal rate of 5% or less (almost no effect)). For the same compound, the “I: wild oat, herbicidal effect grade” value [10] was 0 (Herbicidal rate of 5% or less (almost no effect)), the “J: blackgrass, herbicidal effect grade” value [11] was 0 (Herbicidal rate of 5% or less (almost no effect)) and the “K: Italian ryegrass, herbicidal effect grade” value [12] was 0 (Herbicidal rate of 5% or less (almost no effect)). The “L: windgrass, herbicidal effect grade” value [13] was 0 (Herbicidal rate of 5% or less (almost no effect)), the “M: velvetleaf, herbicidal effect grade” value [14] was 0 (Herbicidal rate of 5% or less (almost no effect)) and the “N: redroot pigweed, herbicidal effect grade” value [15] was 0 (Herbicidal rate of 5% or less (almost no effect)). For the same compound, the “O: lambsquarters, herbicidal effect grade” value [16] was 0 (Herbicidal rate of 5% or less (almost no effect)), the “P: chickweed, herbicidal effect grade” value [17] was 0 (Herbicidal rate of 5% or less (almost no effect)) and the “Q: false cleavers, herbicidal effect grade” value [18] was 0 (Herbicidal rate of 5% or less (almost no effect)). For the same compound, the “R: persian speedwell, herbicidal effect grade” value [19] was 5 (Herbicidal rate of 90% or more (almost completely withered)), the “F: southern crabgrass, herbicidal effect grade” value [20] was 0 (Herbicidal rate of 5% or less (almost no effect)) and the “G: green foxtail, herbicidal effect grade” value [21] was 0 (Herbicidal rate of 5% or less (almost no effect)). For the same compound, the “H: barnyard grass, herbicidal effect grade” value [22] was 0 (Herbicidal rate of 5% or less (almost no effect)), the “I: wild oat, herbicidal effect grade” value [23] was 0 (Herbicidal rate of 5% or less (almost no effect)) and the “J: blackgrass, herbicidal effect grade” value [24] was 0 (Herbicidal rate of 5% or less (almost no effect)). The “K: Italian ryegrass, herbicidal effect grade” value [25] was 4 (Herbicidal rate of 70% or more and less than 90%), the “L: windgrass, herbicidal effect grade” value [26] was 0 (Herbicidal rate of 5% or less (almost no effect)) and the “M: velvetleaf, herbicidal effect grade” value [27] was 0 (Herbicidal rate of 5% or less (almost no effect)). The “N: redroot pigweed, herbicidal effect grade” value [28] was 0 (Herbicidal rate of 5% or less (almost no effect)), the “O: lambsquarters, herbicidal effect grade” value [29] was 0 (Herbicidal rate of 5% or less (almost no effect)) and the “P: chickweed, herbicidal effect grade” value [30] was 5 (Herbicidal rate of 90% or more (almost completely withered)). For the same compound, the “Q: false cleavers, herbicidal effect grade” value [31] was 2 (Herbicidal rate of 20% or more and less than 40%) and the “R: persian speedwell, herbicidal effect grade” value [32] was 5 (Herbicidal rate of 90% or more (almost completely withered)).
